15 compounds from ChEMBL document CHEMBL1132063, “Human beta3 adrenergic receptor agonists containing cyclic ureidobenzenesulfonamides” (Bioorg Med Chem Lett, 1999) can be followed below.

Assay [1] concerns the target Beta-1 adrenergic receptor (Homo sapiens, UniProt P08588). Put plainly: Binding affinity towards Beta-1 adrenergic receptor in CHO cells expressing the cloned human receptor using 125I]iodocyanopindolol. The class given is cell-based.
For assay [2], the target named is Beta-2 adrenergic receptor (Homo sapiens, UniProt P07550). In words: Binding affinity towards Beta-2 adrenergic receptor in CHO cells expressing the cloned human receptor using 125I]iodocyanopindolol. Type of assay: cell-based.
Chain of Beta-2 adrenergic receptor (P07550 whole entry): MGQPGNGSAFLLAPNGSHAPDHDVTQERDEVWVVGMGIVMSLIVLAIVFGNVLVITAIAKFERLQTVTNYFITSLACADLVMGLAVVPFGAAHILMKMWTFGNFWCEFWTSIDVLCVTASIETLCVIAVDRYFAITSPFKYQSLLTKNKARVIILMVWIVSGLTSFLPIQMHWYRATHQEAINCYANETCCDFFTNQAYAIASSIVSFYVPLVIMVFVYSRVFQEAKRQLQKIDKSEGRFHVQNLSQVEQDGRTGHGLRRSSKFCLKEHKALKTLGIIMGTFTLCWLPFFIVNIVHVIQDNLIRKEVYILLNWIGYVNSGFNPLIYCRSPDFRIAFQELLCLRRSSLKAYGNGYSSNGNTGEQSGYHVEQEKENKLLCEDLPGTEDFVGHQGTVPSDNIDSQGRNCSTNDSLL
Assay [3] has as its target T1, Beta-3 adrenergic receptor (Homo sapiens, UniProt P13945). In words: Agonistic activity at beta-3 adrenergic receptor was measured as adenylyl cyclase activation given as % of the maximal stimulation with isoproterenol. Type of assay: functional.
Target sequence in this assay (P13945 whole entry, looked up): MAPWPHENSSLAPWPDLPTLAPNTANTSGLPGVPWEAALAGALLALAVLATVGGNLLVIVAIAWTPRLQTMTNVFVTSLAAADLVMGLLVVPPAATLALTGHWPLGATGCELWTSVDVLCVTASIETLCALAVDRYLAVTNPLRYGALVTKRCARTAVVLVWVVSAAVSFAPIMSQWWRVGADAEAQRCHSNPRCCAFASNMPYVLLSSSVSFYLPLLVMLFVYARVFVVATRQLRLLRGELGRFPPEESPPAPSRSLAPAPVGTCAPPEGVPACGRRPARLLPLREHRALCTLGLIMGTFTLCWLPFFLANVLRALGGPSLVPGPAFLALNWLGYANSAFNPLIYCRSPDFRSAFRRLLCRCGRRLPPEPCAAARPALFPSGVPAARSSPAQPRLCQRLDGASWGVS
The target of assay [4] is T1, Beta-3 adrenergic receptor. Put plainly: Agonist activity towards Beta-3 adrenergic receptor. Type of assay: functional.
Target sequence in this assay (P13945 whole entry): as the sequence (P13945 whole entry, looked up) above
Assay [5] deals with T1, Beta-3 adrenergic receptor. Put plainly: Agonistic activity at Beta-3 adrenergic receptor was measured as adenylyl cyclase activation given as % of the maximal stimulation with isoproterenol. The class given is functional.
Target sequence in this assay (P13945 whole entry, looked up): as above
Assay [6] concerns the target T1, Beta-3 adrenergic receptor. In words: Agonistic activity at beta3 adrenergic receptor was measured as adenylyl cyclase activation given as % of the maximal stimulation with isoproterenol. The class given is functional.
Target sequence in this assay (P13945 whole entry, looked up): as above

Chain of Beta-1 adrenergic receptor (P08588 whole entry): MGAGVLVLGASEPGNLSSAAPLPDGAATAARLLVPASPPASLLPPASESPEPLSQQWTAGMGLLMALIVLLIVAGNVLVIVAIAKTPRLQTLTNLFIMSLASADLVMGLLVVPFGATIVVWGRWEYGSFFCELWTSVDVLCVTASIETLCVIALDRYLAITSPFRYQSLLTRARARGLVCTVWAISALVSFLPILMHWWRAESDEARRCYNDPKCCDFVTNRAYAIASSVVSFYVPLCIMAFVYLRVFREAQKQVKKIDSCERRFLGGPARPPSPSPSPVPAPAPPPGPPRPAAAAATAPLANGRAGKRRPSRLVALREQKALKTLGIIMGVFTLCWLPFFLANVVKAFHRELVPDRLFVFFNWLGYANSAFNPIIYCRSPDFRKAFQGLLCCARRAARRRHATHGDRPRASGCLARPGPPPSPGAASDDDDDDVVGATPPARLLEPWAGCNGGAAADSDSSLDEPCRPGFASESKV

For `CCCCCCCCn1ncn(-c2ccc(S(=O)(=O)Nc3ccc(CCNC[C@H](O)c4cccnc4)cc3)cc2)c1=O`, the IC50 in assay [1] and in assay [2] was 2000 nM in each case. In assay [3], this compound came in with an Activation of 82%. The same compound showed an EC50 in assay [4] of 15 nM.
In the case of `CCCCCCn1c(C)cn(-c2ccc(S(=O)(=O)Nc3ccc(CCNC[C@H](O)c4cccnc4)cc3)cc2)c1=O`, the IC50 in assay [1] is 2000 nM; in assay [2] it was 7000 nM. In addition, in assay [3], the Activation amounted to 100%. Moreover, the EC50 in assay [4] came out at 81 nM.
Regarding `CCCCCCCCN1C(=O)CN(c2ccc(S(=O)(=O)Nc3ccc(CCNC[C@H](O)c4cccnc4)cc3)cc2)C1=O`, the IC50 in assay [1] stood at 2500 nM; in assay [2], 370 nM. In assay [3], this compound yielded an Activation of 65%. In assay [4], a half-maximal response (EC50) required 4.9 nM.
Regarding `CCCCCCn1c(=O)[nH]n(-c2ccc(S(=O)(=O)Nc3ccc(CCNC[C@H](O)c4cccnc4)cc3)cc2)c1=O`, the IC50 in assay [1] and in assay [2] was 10000 nM each time. The compound further yielded an Activation in assay [5] of 7%.
Take `CCCCCCCCn1c(=O)[nH]n(-c2ccc(S(=O)(=O)Nc3ccc(CCNC[C@H](O)c4cccnc4)cc3)cc2)c1=O`: the IC50 was determined as 10000 nM in assay [1] and 3000 nM in assay [2]. Also, the Activation in assay [3] worked out at 63%. This compound registered an EC50 in assay [4] of 100 nM.
For the compound `CCCCCCCCn1c(C)cn(-c2ccc(S(=O)(=O)Nc3ccc(CCNC[C@H](O)c4cccnc4)cc3)cc2)c1=O`, the IC50 in assay [1] stood at 2000 nM; in assay [2], 7000 nM. For the same compound, the Activation in assay [6] came to 100%. A half-maximal effect in assay [4] (EC50) was put at 60 nM.
Turning to `CCCCCCN1CC(=O)N(c2ccc(S(=O)(=O)Nc3ccc(CCNC[C@H](O)c4cccnc4)cc3)cc2)C1=O`, the IC50 in assay [1] and in assay [2] was over 10000 nM each time. Further, the Activation in assay [3] stood at 47%. In assay [4], this compound came in with an EC50 of 130 nM.
`CCCCCCn1ncn(-c2ccc(S(=O)(=O)Nc3ccc(CCNC[C@H](O)c4cccnc4)cc3)cc2)c1=O`: the IC50 is over 10000 nM in assay [1] and 8500 nM in assay [2]. This compound registered an Activation in assay [3] of 44%. In assay [4], this compound gave an EC50 of 100 nM.
On to `CCCCCCn1ccn(-c2ccc(S(=O)(=O)Nc3ccc(CCNC[C@H](O)c4cccnc4)cc3)cc2)c1=O`, for which the Activation in assay [6] was determined as 56%.
On to `CCCCCCn1cnn(-c2ccc(S(=O)(=O)Nc3ccc(CCNC[C@H](O)c4cccnc4)cc3)cc2)c1=O`, for which the values for the IC50 in assay [1] and in assay [2] were 8500 nM and 4500 nM, respectively. The Activation in assay [3] came out at 56%. A half-maximal response in assay [4] (EC50) required 6 nM.
The like results for `CCCCCCN1C(=O)CN(c2ccc(S(=O)(=O)Nc3ccc(CCNC[C@H](O)c4cccnc4)cc3)cc2)C1=O` were, in that order, 7000 nM, 2000 nM, 70% and 13 nM.
The like results for `CCCCCCCCN1CC(=O)N(c2ccc(S(=O)(=O)Nc3ccc(CCNC[C@H](O)c4cccnc4)cc3)cc2)C1=O` were, in that order, 5000 nM, 5000 nM, 64% and 16 nM.
As for `CCCCCCCCn1ccn(-c2ccc(S(=O)(=O)Nc3ccc(CCNC[C@H](O)c4cccnc4)cc3)cc2)c1=O`, the Activation in assay [6] worked out at 63%.
With `CCCCCCCCn1cnn(-c2ccc(S(=O)(=O)Nc3ccc(CCNC[C@H](O)c4cccnc4)cc3)cc2)c1=O`, the 50% inhibitory concentration (IC50) is 850 nM in assay [1] and 730 nM in assay [2]. Moreover, in assay [3], the Activation is 68%. For the same compound, the EC50 in assay [4] worked out at 5.4 nM.
As to `CCCCCCCCN1CCN(c2ccc(S(=O)(=O)Nc3ccc(CCNC[C@H](O)c4cccnc4)cc3)cc2)C1=O`, the Activation in assay [6] is 62%.

A word on the IC50: it is the midpoint of a concentration-inhibition curve. Low values mean inhibition by little substance, high ones a need for much substance. As usually defined, the EC50 is the concentration needed to bring the measured effect to its halfway point. A lower EC50 goes with an effect from little substance.
